Test results published in paper PMC5460925, “Degradation Paradigm of the Gut Hormone, Pancreatic Polypeptide, by Hepatic and Renal Peptidases” (Endocrinology, 2017).
Each block holds one molecule with its values, some of them ahead of it. Where no end group is shown, it is not given here.

Columns and labels:
[1] = tested on: food intake in C57/BL6 mice; test: Acute feeding studies (food intake) in overnight-fasted mice; assay type: in vivo, mouse; conditions: for inhibition of food intake over 24 hours vs saline: 0 to 24 hours
Experimental: All animal procedures were approved by the British Home Office, under the United Kingdom Animal (Scientific Procedures) Act 1986 (project license, 70/6402). Adult male C57/BL6 mice (Harlan, Wyton, UK) weighing 20 to 25 g were maintained in individual cages under controlled temperature (21°C to 23°C) and light (12-hour light/dark cycle, with lights on at 7:00 AM). The mice had ad libitum access to water and normal chow RM1 (Special Diet Services, Devon, UK), unless stated otherwise. For acclimatization, the mice were regularly handled and given 2 sham subcutaneous (SC) and/or intraperitoneal (IP) injections of saline. Before each feeding study, the mice were fasted overnight, and the injections were performed during the early light phase (8:00 to 10:00 AM). The mice were stratified by body weight. To investigate the anorectic effects of DPPIV-resistant analogs, the mice were stratified into treatment groups and administered a SC injection (maximum volume, 100 µL) of vehicle, PP, PP3-36, PP2-36, or PP-Ala0 (n = […]). Food intake was measured at 1, 2, 4, and 8 hours after injection to compare the peptides with short half-lives (PP and its endogenous degradation product, PP3-36) and, in a separate experiment, at 24 hours after injection for peptides with modifications (PP-Ala0 and PP2-36, using PP as the comparator). A PP analog with global modifications for enzyme resistance (PP-x) was also investigated and administered as a SC injection (maximum volume, 100 µL) at a high and low dose (n = 9). Food intake was measured at 1, 2, 4, and 8 hours after injection. […] This dose of phosphoramidon was sufficient to inhibit NEP activity ([30]). Food intake was measured at 1, 2, 4, 8, 24, and 48 hours after injection.

mouse Y4 receptor = target: T1, mouse Y4 receptor (Mus musculus, UniProt Q61041); test: Y4 receptor binding assay (125I-PP competition)
T1 construct: expressed in transfected cells; host or cells: HEK293
Experimental: Transfected HEK293 cells overexpressing the mouse Y4 receptor were prepared and binding assays performed as previously described ([29]). Isolated cell membranes (protein concentration, 1 to 2 µg/mL) were incubated for 90 minutes in siliconized polypropylene tubes together with ^125I-PP [1 kBq (100 pM)] and a dose response of unlabeled competing peptides at 4°C in binding buffer [20 mM HEPES (pH 7.4), 1 mM MgCl2, 5 mM CaCl2, 0.1% bovine serum albumin, and protease inhibitors (0.2 mM phenylmethylsulfonyl fluoride, 0.1 mM Diprotin A, and 10 µM phosphoramidon ( all from Sigma-Aldrich)] in a final assay volume of 0.5 mL. PP was iodinated as previously described ([8]) using ^125I from GE Healthcare Life Sciences (Amersham, UK). Pelleted membranes were washed with 5 mL ice-cold assay buffer, and the membranes were centrifuged at 15,874g for 3 minutes at 4°C, as described, to separate bound and free label. Bound radioactivity was measured using a γ-counter (NE 1600; NE Technology Ltd, Reading, UK). Specific binding was calculated as the difference between the amount of ^125I-PP bound in the absence (total binding) and presence of 5 μM unlabeled competing peptide (nonsaturable binding). All curves were performed with points in triplicate. Half maximal inhibitory concentration values were calculated using Prism, version 5.01 (GraphPad Software Inc., San Diego, CA) using a three-parameter logistic equation for the nonlinear regression fit: Y = bottom + (top − bottom)/1 + 10^(LogEC50 − X), where EC50 is the half maximal effective concentration.

in vivo = test: in vivo; parameters: species or system mouse; conditions: sc
Experimental: The mice were divided into four treatment groups according to body weight. A protocol similar to that used for the phosphoramidon feeding study was used, with an IP injection, followed by a SC injection 15 minutes later (maximum volume, 50 µL for each injection) of phosphoramidon (0, 7, 20, and 60 mg/kg IP), followed by PP (150 nmol/kg SC in saline; n = 4 to 6; […]). […] Additional mice (n = 2) underwent overnight fasting and were culled at 0 minutes after injection of the control substances (saline SC and vehicle IP) for measurement of the baseline levels of circulating PP. The blood was immediately removed via cardiac puncture and centrifuged at 6000 rpm (Sigma 3K18; 12348 rotor; Sigma-Aldrich) for 10 minutes. The plasma was stored at −20°C until analysis. The plasma samples were assayed using an established in-house PP RIA ([8]). The anti-PP antibody was elevated in rabbit against human PP and recognized PP (and other truncated forms) but not in other PP-fold peptides or gastrointestinal peptides. ^125I-PP was prepared using the iodogen method and purified using HPLC. The assay was performed in duplicate in a total volume of 700 µL of 0.06 M phosphate buffer (pH 7.35) containing 0.3% bovine serum albumin. The samples were incubated for 3 days at 4°C before separation of free and antibody-bound ^125I-PP using dextran-coated charcoal. The sensitivity was ≤5 fmol/tube. The intra-assay coefficient of variation was 6%.

[2] = 150 nmol/kg SC, overnight-fasted C57/BL6 mice, n = 7

T1 sequence (Q61041 whole entry): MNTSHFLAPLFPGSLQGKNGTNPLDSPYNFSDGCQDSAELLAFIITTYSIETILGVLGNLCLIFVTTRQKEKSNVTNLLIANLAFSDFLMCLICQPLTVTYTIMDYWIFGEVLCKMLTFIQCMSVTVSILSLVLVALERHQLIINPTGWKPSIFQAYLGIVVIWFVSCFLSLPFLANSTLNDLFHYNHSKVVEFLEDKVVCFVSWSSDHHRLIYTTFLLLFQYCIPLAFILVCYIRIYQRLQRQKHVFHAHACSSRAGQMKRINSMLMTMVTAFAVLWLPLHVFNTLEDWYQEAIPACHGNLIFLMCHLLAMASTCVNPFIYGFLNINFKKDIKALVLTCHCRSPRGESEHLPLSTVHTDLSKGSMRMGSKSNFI

Molecule: CC[C@H](C)[C@H](NC(=O)[C@H](Cc1ccc(O)cc1)NC(=O)[C@H](CCCNC(=N)N)NC(=O)[C@H](CCCNC(=N)N)NC(=O)[C@H](CC(C)C)NC(=O)[C@H](CC(=O)O)NC(=O)[C@H](C)NC(=O)[C@H](C)NC(=O)[C@H](Cc1ccc(O)cc1)NC(=O)[C@H](CCC(N)=O)NC(=O)[C@H](C)NC(=O)[C@H](CCSC)NC(=O)[C@H](CCC(N)=O)NC(=O)[C@H](CCC(=O)O)NC(=O)[C@@H]1CCCN1C(=O)[C@@H](NC(=O)[C@H](C)NC(=O)[C@H](CC(N)=O)NC(=O)[C@H](CC(=O)O)NC(=O)CNC(=O)[C@@H]1CCCN1C(=O)[C@H](Cc1ccc(O)cc1)NC(=O)[C@@H](NC(=O)[C@@H]1CCCN1C(=O)[C@H](CCC(=O)O)NC(=O)[C@H](CC(C)C)NC(=O)[C@@H]1CCCN1)C(C)C)[C@@H](C)O)C(=O)N[C@@H](CC(N)=O)C(=O)N[C@@H](CCSC)C(=O)N[C@@H](CC(C)C)C(=O)N[C@H](C(=O)N[C@@H](CCCNC(=N)N)C(=O)N1CCC[C@H]1C(=O)N[C@@H](CCCNC(=N)N)C(=O)N[C@@H](Cc1ccc(O)cc1)C(N)=O)[C@@H](C)O [PP2-36]
- inhibition of food intake over 24 hours vs saline [1, 2]: statistically significant inhibition of food intake

Molecule: CC(C)C[C@H](NP(=O)(O)O[C@@H]1O[C@@H](C)[C@H](O)[C@@H](O)[C@H]1O)C(=O)N[C@@H](Cc1c[nH]c2ccccc12)C(=O)O [phosphoramidon]
- effect on food intake, inhibitor alone ([1]; phosphoramidon 5 mg/kg IP then saline SC, any interval up to 48 hours): did not cause a substantial reduction of food intake

Molecule: N[C@@H](CC(=O)N1CCn2c(nnc2C(F)(F)F)C1)Cc1cc(F)c(F)cc1F [sitagliptin]
- effect on food intake, inhibitor alone ([1]; sitagliptin 6 mg/kg IP then saline SC, any interval up to 8 hours): did not cause a substantial reduction of food intake

The next lines start with results.

- IC50 (mouse Y4 receptor; membranes of HEK293 cells overexpressing mouse Y4 receptor, competition with 125I-PP (100 pM), 90 min, 4°C, mean ± SEM of three to five separate experiments, read-out: IC50 (half maximal inhibitory concentration), Y4 receptor binding affinity): 0.35 ± 0.05 nM
- level at time molar at 0.75 h (in vivo; male, C57BL/6, mouse, 150 nmol/kg, plasma level of PP-Ala0 at 45 minutes, alone): 4.92 ± 0.48 nM
- level at time molar at 1.5 h (in vivo; male, C57BL/6, mouse, 150 nmol/kg, plasma level of PP-Ala0 at 90 minutes, alone): 1.81 ± 0.319 nM
- decrease of plasma level (peptide cleared) between 45 and 90 minutes after injection (in vivo; mouse): 60%
Molecule: CC[C@H](C)[C@H](NC(=O)[C@H](Cc1ccc(O)cc1)NC(=O)[C@H](CCCNC(=N)N)NC(=O)[C@H](CCCNC(=N)N)NC(=O)[C@H](CC(C)C)NC(=O)[C@H](CC(=O)O)NC(=O)[C@H](C)NC(=O)[C@H](C)NC(=O)[C@H](Cc1ccc(O)cc1)NC(=O)[C@H](CCC(N)=O)NC(=O)[C@H](C)NC(=O)[C@H](CCSC)NC(=O)[C@H](CCC(N)=O)NC(=O)[C@H](CCC(=O)O)NC(=O)[C@@H]1CCCN1C(=O)[C@@H](NC(=O)[C@H](C)NC(=O)[C@H](CC(N)=O)NC(=O)[C@H](CC(=O)O)NC(=O)CNC(=O)[C@@H]1CCCN1C(=O)[C@H](Cc1ccc(O)cc1)NC(=O)[C@@H](NC(=O)[C@@H]1CCCN1C(=O)[C@H](CCC(=O)O)NC(=O)[C@H](CC(C)C)NC(=O)[C@@H]1CCCN1C(=O)[C@H](C)NC(=O)[C@H](C)N)C(C)C)[C@@H](C)O)C(=O)N[C@@H](CC(N)=O)C(=O)N[C@@H](CCSC)C(=O)N[C@@H](CC(C)C)C(=O)N[C@H](C(=O)N[C@@H](CCCNC(=N)N)C(=O)N1CCC[C@H]1C(=O)N[C@@H](CCCNC(=N)N)C(=O)N[C@@H](Cc1ccc(O)cc1)C(N)=O)[C@@H](C)O [PP-Ala0]
- inhibition of food intake over 24 hours vs saline [1, 2]: statistically significant inhibition of food intake

- plasma level at 120 minutes relative to PP (in vivo; mouse): almost threefold
- level at time molar at 0.5 h (in vivo; mouse, 100 nmol/kg, plasma peptide level at 30 minutes after injection): 26.9 nM
- level at time molar at 2 h (in vivo; mouse, 100 nmol/kg, plasma peptide level at 120 minutes after injection): 5.81 ± 0.215 nM
Molecule: GAPLEPTYPGDNATPEQLARYAAALRRYINKLTRPRY-NH2 (C-terminus assumed) [PP-x]
- cumulative food intake at 8 hours (0- to 8-hour interval), low dose ([1]; 25 nmol/kg SC, overnight-fasted C57BL/6 mice, n = 9, mean ± SEM): 1.98 ± 0.14 g
- food intake at 8 hours, high dose ([1]; 150 nmol/kg SC, overnight-fasted C57BL/6 mice, n = 9, mean ± SEM): 1.04 ± 0.09 g

- affinity to the Y4 receptor compared with PP (mouse Y4 receptor; DPPIV degradation product compared with PP, statement in discussion): no substantial reduction in affinity
Molecule: PP3-36: DPPIV degradation product of PP (LEPVYPGDNATPEQMAQYAADLRRYINMLTRPRY-NH2; ends and bridges not checked; UniProt P01298 32-65, looked up, fragment)
- cumulative food intake 0 to 8 hours ([1]; 150 nmol/kg SC, overnight-fasted C57/BL6 mice, n = 7, mean ± SEM): 1.71 ± 0.29 g
